Read-outs that look alike come from different tables or passages of the source.
Columns and labels:
[1] = system: iCell cardiomyocytes (human iPSC-derived cardiomyocytes); experiment: High-content imaging of cytotoxicity and mitochondrial integrity in iPSC-CMs; format: cell-based; settings: Homo sapiens; for viability at 0.01 µM / activity at 0.01 µM / viability at 0.1 µM / activity at 0.1 µM / viability at 1 µM / activity at 1 µM / viability at 10 µM / activity at 10 µM / viability at 100 µM / activity at 100 µM: Cardiomyocyte, 0.00 µM = 100.00; for viability at 0.1 µM / activity at 0.1 µM: 0.10 µM; for minimal effective concentration: iPSC-CM
Procedure, shortened: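 Cardiomyocytes grown on gelatinized 384-well plates received fresh medium on the experiment day and were then exposed to chemicals at 0.01–100μM. Nuclei and mitochondria were labeled with Hoechst 33342 and MitoTracker™ Orange, then fixed, and imaged on an ImageXpress® Micro Confocal system. Four-parameter logistic concentration–response fits in R, with a one-standard-deviation vehicle cutoff, gave point-of-departure values.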

HUVECs = experiment: High-content imaging cytotoxicity in HUVECs, 24 h; format: cell-based, human; settings: Homo sapiens, HUVEC, 24 h, HUVECs; for viability at 0.01 µM / activity at 0.01 µM / viability at 0.1 µM / activity at 0.1 µM / viability at 1 µM / activity at 1 µM / viability at 10 µM / activity at 10 µM / viability at 100 µM / activity at 100 µM: 0.00 µM = 100.00; for viability at 0.1 µM / activity at 0.1 µM: 0.10 µM; for minimal effective concentration: top concentration 100.00 µM
Procedure, shortened: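 Confluent HUVEC monolayers, passages 1–5, received test chemicals for 24 h. Cytotoxicity was scored from triple-stain high-content images, with PODs defined by a one-SD deviation from 0.5% DMSO vehicle controls.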

[2] = 24 hr, read-out: huvec.cyto.24hr
[3] = 24 hr, read-out: huvec.mito.24hr
[4] = 24 hr, read-out: huvec.mitoint.24hr
[5] = 24 hr, read-out: huvec.nma.24hr
[6] = 24 hrs, read-out: huvec.tc.24hrs

Compound: Oc1ccc(-c2cccc(Cl)c2)cc1Cl [4-OH PCB11]
- viability at 0.01 µM ([1]; 1.5 h, read-out: cm.cam.90min): 94.9%
- activity at 0.01 µM ([1]; 1.5 h, read-out: cm.mii.90min): 115%
- activity at 0.01 µM ([1]; 1.5 h, read-out: cm.mito.90min): 94.7%
- viability at 0.01 µM ([1]; 1.5 h, read-out: cm.tc.90min): 94.7%
- viability at 0.1 µM ([1]; 1.5 h, read-out: cm.cam.90min): 95%
- activity at 0.1 µM ([1]; 1.5 h, read-out: cm.mii.90min): 108%
- activity at 0.1 µM ([1]; 1.5 h, read-out: cm.mito.90min): 95%
- viability at 0.1 µM ([1]; 1.5 h, read-out: cm.tc.90min): 95%
- viability at 1 µM ([1]; 1.5 h, read-out: cm.cam.90min): 99.1%
- activity at 1 µM ([1]; 1.5 h, read-out: cm.mii.90min): 113%
- activity at 1 µM ([1]; 1.5 h, read-out: cm.mito.90min): 98.6%
- viability at 1 µM ([1]; 1.5 h, read-out: cm.tc.90min): 98.8%
- viability at 10 µM ([1]; 1.5 h, read-out: cm.cam.90min): 106%
- activity at 10 µM ([1]; 1.5 h, read-out: cm.mii.90min): 93.6%
- activity at 10 µM ([1]; 1.5 h, read-out: cm.mito.90min): 106%
- viability at 10 µM ([1]; 1.5 h, read-out: cm.tc.90min): 106%
- viability at 100 µM ([1]; 1.5 h, read-out: cm.cam.90min): 0.0234%
- activity at 100 µM ([1]; 1.5 h, read-out: cm.mii.90min): 157%
- activity at 100 µM ([1]; 1.5 h, read-out: cm.mito.90min): 0.0462%
- viability at 100 µM ([1]; 1.5 h, read-out: cm.tc.90min): 0.09%
- viability at 0.01 µM ([1]; 24 h, read-out: cm.cam.24hrs): 90.8%
- activity at 0.01 µM ([1]; 24 h, read-out: cm.mii.24hrs): 101%
- activity at 0.01 µM ([1]; 24 h, read-out: cm.mito.24hrs): 86.2%
- viability at 0.01 µM ([1]; 24 h, read-out: cm.tc.24hrs): 90.8%
- viability at 0.1 µM ([1]; 24 h, read-out: cm.cam.24hrs): 100%
- activity at 0.1 µM ([1]; 24 h, read-out: cm.mii.24hrs): 111%
- activity at 0.1 µM ([1]; 24 h, read-out: cm.mito.24hrs): 97.6%
- viability at 0.1 µM ([1]; 24 h, read-out: cm.tc.24hrs): 99.9%
- viability at 1 µM ([1]; 24 h, read-out: cm.cam.24hrs): 98.4%
- activity at 1 µM ([1]; 24 h, read-out: cm.mii.24hrs): 100%
- activity at 1 µM ([1]; 24 h, read-out: cm.mito.24hrs): 96.4%
- viability at 1 µM ([1]; 24 h, read-out: cm.tc.24hrs): 98.7%
- viability at 10 µM ([1]; 24 h, read-out: cm.cam.24hrs): 93.1%
- activity at 10 µM ([1]; 24 h, read-out: cm.mii.24hrs): 96.5%
- activity at 10 µM ([1]; 24 h, read-out: cm.mito.24hrs): 90.8%
- viability at 10 µM ([1]; 24 h, read-out: cm.tc.24hrs): 93.5%
- viability at 100 µM ([1]; 24 h, read-out: cm.cam.24hrs): 0.0471%
- activity at 100 µM ([1]; 24 h, read-out: cm.mii.24hrs): 1.84%
- activity at 100 µM ([1]; 24 h, read-out: cm.mito.24hrs): 0.024%
- viability at 100 µM ([1]; 24 h, read-out: cm.tc.24hrs): 0.11%
- minimal effective concentration ([1]; 1.5 h, read-out: cm.cam.90min POD): 27.7 µM
- minimal effective concentration ([1]; 1.5 h, read-out: cm.mii.90min POD): 32.7 µM
- minimal effective concentration ([1]; 1.5 h, read-out: cm.mito.90min POD): 40.1 µM
- minimal effective concentration ([1]; 1.5 h, read-out: cm.tc.90min POD): 36.2 µM
- minimal effective concentration ([1]; 24 h, read-out: cm.cam.24hrs POD): 8.57 µM
- minimal effective concentration ([1]; 24 h, read-out: cm.mii.24hrs POD): 43.2 µM
- minimal effective concentration ([1]; 24 h, read-out: cm.mito.24hrs POD): 7.94 µM
- minimal effective concentration ([1]; 24 h, read-out: cm.tc.24hrs POD): 8.62 µM
- viability at 0.01 µM (HUVECs; [2]): 113%
- activity at 0.01 µM (HUVECs; [3]): 112%
- activity at 0.01 µM (HUVECs; [4]): 86.8%
- activity at 0.01 µM (HUVECs; [5]): 95.3%
- viability at 0.1 µM (HUVECs; [2]): 87.7%
- activity at 0.1 µM (HUVECs; [3]): 86.9%
- activity at 0.1 µM (HUVECs; [4]): 109%
- activity at 0.1 µM (HUVECs; [5]): 105%
- viability at 1 µM (HUVECs; [2]): 97%
- activity at 1 µM (HUVECs; [3]): 96.1%
- activity at 1 µM (HUVECs; [4]): 101%
- activity at 1 µM (HUVECs; [5]): 97.1%
- viability at 10 µM (HUVECs; [2]): 43.8%
- activity at 10 µM (HUVECs; [3]): 26.1%
- activity at 10 µM (HUVECs; [4]): 10.9%
- activity at 10 µM (HUVECs; [5]): 69.2%
- viability at 100 µM (HUVECs; [2]): 34.6%
- activity at 100 µM (HUVECs; [3]): 0.26%
- activity at 100 µM (HUVECs; [4]): 2.7%
- activity at 100 µM (HUVECs; [5]): 73.6%
- minimal effective concentration (HUVECs; 24 hr, read-out: huvec.cyto.24hr POD): 1.37 µM
- minimal effective concentration (HUVECs; 24 hr, read-out: huvec.mito.24hr POD): 1.2 µM
- minimal effective concentration (HUVECs; 24 hr, read-out: huvec.mitoint.24hr POD): 5.43 µM
- minimal effective concentration (HUVECs; 24 hr, read-out: huvec.nma.24hr POD): 0.99 µM
- viability at 0.01 µM (HUVECs; [6]): 113%
- viability at 0.1 µM (HUVECs; [6]): 87.7%
- viability at 1 µM (HUVECs; [6]): 97%
- viability at 10 µM (HUVECs; [6]): 44.1%
- viability at 100 µM (HUVECs; [6]): 36.5%
- minimal effective concentration (HUVECs; 24 hrs, read-out: huvec.tc.24hrs POD): 1.37 µM
